System: IL-2 release by (PMA+Ionomycin)-stimulated Jurkat cells
Test: IL-2 release assay (IL-2 ELISA)
Type: cell-based
Settings: Homo sapiens; PMA + Ionomycine stimulated Jurkat cells
Experimental: The Ability of the Compounds According to Formula I to Modulate the Inflammatory Response by Inhibiting the Release of IL-2 was Assessed Using the Following Protocol
JNK pathway activation triggers the production of inflammatory cytokines such as IL-2. JNK can be activated by external stimuli such as PMA and Ionomycine and IL-2 production can be measured via an IL-2 ELISA test. Comparative measurements with and without the compounds of the invention according to the following protocol measure the ability of the compounds to prevent to stress-mediated IL-2 release.
Jurkat cells, a human T cell leukemia cell line (American Type Culture Collection # TIB 152) were cultured in RPMI 1640 medium (Gibco, BRL) supplemented with 10% of […] fetal calf serum (FCS), Glutamine and Penstrep. The cell suspension in the medium is diluted to give 2.10^6 cells/mL. The cells were plated (2.10^5 cells/well) on a 96-well plate containing different concentrations of a compound according to formula I (final concentration of compounds, 10, 3, 1, 0.3, 0.1 μM). This mixture is incubated 30 minutes at 37° C. in a humidified CO2 atmosphere. Cells were then treated with 10 μl PMA (Phorbolmyristate-13 Acetate-12)+Ionomycine (0.1 μM and 1 μM final concentration) in all wells except negative control. In wells without compounds, 10 μl of RPMI 2% DMSO (=0.1% final) is added. Cells are incubated 24 hours at 37° C. and then the supernatant harvested (freeze at −20° C. if not used the same day) prior to performing IL-2 ELISA test on the supernatant.
IL-2 release into the medium by (PMA+Iononomycin)-stimulated Jurkat cells, in presence or absence of test compounds may be assayed by ELISA. Following the procedure described below.
Monoclonal anti-human IL-2 antibody (MAB602) (capture), biotinylated anti-human IL-2 antibody (BAF202) (detection) and recombinant human IL-2 (202-IL-010) (standard) from From R&D Systems are used. […]
• 1. […] Optical density is measured using a microtiter plate reader set to 450 nm with correction at 570 nm.

IC50: < 800 nM
SMILES: COc1cccc(C(=O)NCc2ccc(S(=O)(=O)N3CCC(NCc4ccc(C(F)(F)F)cc4)CC3)s2)c1 [Example 1, 3-Methoxy-N-{[5-({4-[(4-trifluoromethylbenzyl)amino]piperidin-1-yl}sulfonyl)thien-2-yl]methyl}benzamide]

Reference: patent US7544700B2, “Pharmaceutically active sulfonamide derivatives bearing both lipophilic and ionisable moieties as inhibitors of protein JunKinases” (Laboratoires Serono SA, priority 2000, dated 2009)
